Experimental data: patent publication US5607926A, “Cephalosporin antibiotics” (Microcide Pharmaceuticals, Inc., priority 1995, dated 1997)
Values after ≈ are worked out from the molar mass of the structure shown. Where two headings read alike, the source gives them in different places.

Experiments:
Type in all cases: cell-based
E. coli ATCC 25922 = assay: In vitro antibacterial evaluation, MIC by agar dilution, E. coli ATCC 25922; details: Escherichia coli, ATCC25922, read-out: MIC
Procedure, shortened: (§1)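 NCCLS agar dilution; Mueller-Hinton agar, 2-fold series 128 to ≤0.25 μg/mL, duplicates. Inoculum ~10^4 cfu/spot from 4-6 h log-phase broth culture. 35°-36° C, 16-20 h; MIC = lowest concentration with no growth.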

[1] = tested on: S. epidermidis ATCC 31432; assay: In vitro antibacterial evaluation, MIC by agar dilution, S. epidermidis ATCC 31432; details: Staphylococcus epidermidis, ATCC31432
Procedure: (§2) The compounds of the invention were evaluated against several β-lactamresistant bacteria strains by determining the minimum inhibitory concentration (MIC, μg/ml) of each compound with respect to each strain. The MIC, the lowest concentration of antibiotic which inhibits growth of the test organism, was determined by the agar dilution method.
(§3) To determine the MIC for bacterial isolates, the test compound was incorporated in a series of two-fold dilutions into liquified Mueller-Hinton agar. Upon solidification, a number of different bacterial strains were spot inoculated with a replicating device onto the agar surface. […] The procedures used in these studies have been standardized by the National Committee for Clinical Laboratory Standards (NCCLS), as per the NCCLS publication entitled METHODS FOR DILUTION ANTIMICROBIAL SUSCEPTIBILITY TESTS (1991), which is incorporated herein by reference.
(§4) Aliquots of antimicrobial agents were prepared in phosphate buffered saline (PBS) at pH 7.2. Tween 20 or DMSO was used as a solubilizing vehicle as needed. Standard methods of vortexing, sonicating and gentle heat were used to facilitate solubilizing the test agent. Typically, the concentration of the stock solution was 10× that of the highest drug concentration tested. A 1.28 mg/mL stock solution was used with a subsequent highest working concentration of 128 μg/mL. Serial two-fold dilutions were done through ≤0.25 μg/mL. Each drug level was tested in duplicate. Two-fold drug dilutions were done in sterile 50 mL tubes with a final drug volume of 5 mL. Upon the addition of 45 mL of molten agar, a 10-fold dilution resulted. Two, 25 mL. plates were then poured into 15×150 mm square Petri plates with grids and allowed to harden.
(§5) A control plate with a reference drug, either cefotaxime, vancomycin or imipenem, was used as the positive growth control. Stock concentrations of reference antibiotics were prepared and frozen at -80° C. Upon preparation, the control plates were sealed and stored in the refrigerator for up to 1 week prior to use; however, imipenem control plates had to be prepared just prior to use. All test plates were used within 24 hours of preparation.
(§6) Satisfactory results were obtained where the inoculum contained about 10^4 colony forming units (cfu) ±0.5 logs. Starting with pure cultures of the test isolates on agar plates, a few isolated colonies were transferred to a tube of nutrient broth and allowed to grow 4-6 hours at 35°-36° C. to reach log-phase growth. Dropwise addition of the broth culture to PBS was done to match a 0.5 McFarland turbidity standard equal to 10^8 cfu/mL. This was further diluted ten-fold in PBS to reach a working inoculum concentration of 10^7 cfu/mL. When 1 μL of the working inoculum was applied to the agar surface a concentration of about 10^4 cfu per spot was obtained.
(§7) Disposable sterile 1 μL loops were used to inoculate test plates, with each isolate in a designated grid on the agar plate. An alternate method of inoculation involved the use of a replica plater, a device with 48 steel pins allowing the simultaneous inoculation of multiple isolates. After the spots had dried, the plates were incubated at 35°-36° C. for 16-20 hours. Endpoints were assessed as the minimum inhibitory concentration (MIC) of antimicrobial agent.

[2] = tested on: S. aureus 76 (Meth^R)(lac^+); assay: In vitro antibacterial evaluation, MIC by agar dilution, S. aureus 76; details: Staphylococcus aureus, read-out: MIC
Procedure, shortened: as §1

S. haemolyticus (Meth^R) = assay: In vitro antibacterial evaluation, MIC by agar dilution, S. haemolyticus; details: Staphylococcus haemolyticus, read-out: MIC
Procedure, shortened: as §1

S. aureus ATCC 29213 = assay: In vitro antibacterial evaluation, MIC by agar dilution, S. aureus ATCC 29213; details: Staphylococcus aureus, ATCC29213
Procedure, shortened: as §1

[3] = tested on: S. aureus Col8A (Meth^S)(lac^-); assay: In vitro antibacterial evaluation, MIC by agar dilution, S. aureus Col8A; details: Staphylococcus aureus
Procedure, shortened: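 Log-phase isolates were spot-inoculated at about 10^4 cfu onto Mueller-Hinton agar carrying duplicate two-fold compound levels, 128 μg/mL to ≤0.25 μg/mL, following NCCLS (1991). Plates were read after 16-20 h at 35°-36° C. The lowest growth-inhibiting concentration gave the MIC (μg/ml).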

P. aeruginosa ATCC 27853 = assay: In vitro antibacterial evaluation, MIC by agar dilution, P. aeruginosa ATCC 27853; details: Pseudomonas aeruginosa, ATCC27853, read-out: MIC
Procedure, shortened: as §1

E. faecium ATCC 35667 = assay: In vitro antibacterial evaluation, MIC by agar dilution, E. faecium ATCC 35667; details: Enterococcus faecium, ATCC35667, read-out: MIC
Procedure, shortened: as §1

S. aureus ATCC 25923 = assay: In vitro antibacterial evaluation, MIC by agar dilution, S. aureus ATCC 25923; details: Staphylococcus aureus, ATCC25923
Procedure: as §2, §3, §4, §5, §6, §7

E. faecalis ATCC 29212 = assay: In vitro antibacterial evaluation, MIC by agar dilution, E. faecalis ATCC 29212; details: Enterococcus faecalis, ATCC29212; E. faecalis ATCC 29212; read-out: MIC
Procedure, shortened: as §1

Structure (SMILES) | MIC (E. coli ATCC 25922) | MIC [1] | MIC [2] | MIC (S. haemolyticus (Meth^R)) | MIC (S. aureus ATCC 29213) | MIC [3] | MIC (P. aeruginosa ATCC 27853) | MIC (E. faecium ATCC 35667) | MIC (S. aureus ATCC 25923) | MIC (E. faecalis ATCC 29212) | MIC ([1]; S. epidermidis ATCC 31432, read-out: MIC) | MIC (S. aureus ATCC 25923; S. aureus ATCC 25923, read-out: MIC)
O=C(COc1ccc(Cl)cc1)N[C@@H]1C(=O)N2C(C(=O)O)=C(Sc3ccccc3I)CS[C@H]12 [Cmpd 30, (7R)-7-[(p-Chlorophenoxyacetyl)amino]-3-(o-iodophenylthio)-3-cephem-4-carboxylic acid] | > 32 µg/mL | < 0.25 µg/mL | 2 µg/mL (≈ 3.32 µM) | 4 µg/mL (≈ 6.64 µM) | < 0.25 µg/mL | < 0.25 µg/mL | 13 µg/mL (≈ 21.6 µM) | 1 µg/mL (≈ 1.66 µM) | – | – | – | –
O=C(COc1ccc(Cl)cc1)N[C@@H]1C(=O)N2C(C(=O)O)=C(Sc3cc(Cl)ccc3Cl)CS[C@H]12 [Cmpd 31, (7R)-7-[(p-Chlorophenoxyacetyl)amino]-3-(2,5-dichlorophenylthio)-3-cephem-4-carboxylic acid] | > 32 µg/mL | < 0.25 µg/mL | 4 µg/mL (≈ 7.33 µM) | 8 µg/mL (≈ 14.7 µM) | < 0.25 µg/mL | < 0.25 µg/mL | – | 4 µg/mL (≈ 7.33 µM) | – | – | – | –
COc1ccc(CC(=O)N[C@@H]2C(=O)N3C(C(=O)O)=C(Sc4cc(Cl)ccc4Cl)CS[C@H]23)cc1 [Cmpd 32, (7R)-7-[(p-Methoxyphenylacetyl)amino]-3-(2,5-dichlorophenylthio)-3-cephem-4-carboxylic acid] | > 32 µg/mL | < 0.25 µg/mL | 4 µg/mL (≈ 7.61 µM) | 16 µg/mL (≈ 30.5 µM) | < 0.25 µg/mL | < 0.25 µg/mL | – | 2 µg/mL (≈ 3.81 µM) | – | – | – | –
O=C(Cc1ccccc1)N[C@@H]1C(=O)N2C(C(=O)O)=C(Sc3cc(F)ccc3Br)CS[C@H]12 [Cmpd 33, (7R)-7-[(Phenylacetyl)amino]-3-(2-bromo-5-fluorophenylthio)-3-cephem-4-carboxylic acid] | > 32 µg/mL | < 0.25 µg/mL | 4 µg/mL (≈ 7.64 µM) | 16 µg/mL (≈ 30.6 µM) | < 0.25 µg/mL | < 0.25 µg/mL | – | 1 µg/mL (≈ 1.91 µM) | – | – | – | –
N#CCC(=O)N[C@@H]1C(=O)N2C(C(=O)O)=C(Sc3ccccc3-c3ccccc3)CS[C@H]12 [Cmpd 34, (7R)-7-[(Cyanoacetyl)amino]-3-(2-biphenylthio)-3-cephem-4-carboxylic acid] | > 32 µg/mL | < 0.25 µg/mL | 8 µg/mL (≈ 17.7 µM) | 8 µg/mL (≈ 17.7 µM) | – | < 0.25 µg/mL | > 32 µg/mL | 2 µg/mL (≈ 4.43 µM) | < 0.25 µg/mL | 2 µg/mL (≈ 4.43 µM) | – | –
O=C(CSc1ccccc1)N[C@@H]1C(=O)N2C(C(=O)O)=C(Sc3cc(Cl)ccc3Cl)CS[C@H]12 [Cmpd 35, (7R)-7-[(Phenylthioacetyl)amino]-3-(2,5-dichlorophenylthio)-3-cephem-4-carboxylic acid] | > 32 µg/mL | < 0.25 µg/mL | 2 µg/mL (≈ 3.79 µM) | 8 µg/mL (≈ 15.2 µM) | – | < 0.25 µg/mL | > 32 µg/mL | 1 µg/mL (≈ 1.9 µM) | < 0.25 µg/mL | 1 µg/mL (≈ 1.9 µM) | – | –
C=Cc1ccccc1SC1=C(C(=O)O)N2C(=O)[C@@H](NC(=O)Cc3ccccc3)[C@H]2SC1 [Cmpd 36, (7R)-7-[(Phenylacetyl)amino]-3-(2-vinylphenylthio)-3-cephem-4-carboxylic acid] | > 32 µg/mL | < 0.25 µg/mL | 8 µg/mL (≈ 17.7 µM) | 16 µg/mL (≈ 35.4 µM) | – | < 0.25 µg/mL | > 32 µg/mL | 4 µg/mL (≈ 8.84 µM) | < 0.25 µg/mL | 2 µg/mL (≈ 4.42 µM) | – | –
O=C(Cc1ccccc1)N[C@@H]1C(=O)N2C(C(=O)O)=C(Sc3ccccc3-c3cccs3)CS[C@H]12 [Cmpd 37, (7R)-7-[(Phenylacetyl)amino]-3-(2-(2-thienyl)phenylthio)-3-cephem-4-carboxylic acid] | > 32 µg/mL | < 0.25 µg/mL | 8 µg/mL (≈ 15.7 µM) | 16 µg/mL (≈ 31.5 µM) | – | < 0.25 µg/mL | > 32 µg/mL | 2 µg/mL (≈ 3.93 µM) | < 0.25 µg/mL | 2 µg/mL (≈ 3.93 µM) | – | –
O=C(Cc1ccccc1)N[C@@H]1C(=O)N2C(C(=O)O)=C(Sc3ccccc3CO)CS[C@H]12 [Cmpd 38, (7R)-7-[(Phenylacetyl)amino]-3-(2-hydroxymethylphenylthio)-3-cephem-4-carboxylic acid] | > 32 µg/mL | < 0.25 µg/mL | 16 µg/mL (≈ 35 µM) | 32 µg/mL (≈ 70.1 µM) | – | < 0.25 µg/mL | > 32 µg/mL | 4 µg/mL (≈ 8.76 µM) | < 0.25 µg/mL | 4 µg/mL (≈ 8.76 µM) | – | –
O=C(Cc1ccccc1)N[C@@H]1C(=O)N2C(C(=O)O)=C(Sc3ccc(Br)cc3Br)CS[C@H]12 [Cmpd 39, (7R)-7-[(Phenylacetyl)amino]-3-(2,4-dibromophenylthio)-3-cephem-4-carboxylic acid] | > 32 µg/mL | < 0.25 µg/mL | 4 µg/mL (≈ 6.85 µM) | 8 µg/mL (≈ 13.7 µM) | – | < 0.25 µg/mL | > 32 µg/mL | 2 µg/mL (≈ 3.42 µM) | < 0.25 µg/mL | 2 µg/mL (≈ 3.42 µM) | – | –
O=C(Cc1ccccc1)N[C@@H]1C(=O)N2C(C(=O)O)=C(Sc3ccc(C(F)(F)F)cc3)CS[C@H]12 [Cmpd 40, (7R)-7-[(Phenylacetyl)amino]-3-(4-trifluoromethylphenylthio)-3-cephem-4-carboxylic acid] | > 32 µg/mL | < 0.25 µg/mL | 16 µg/mL (≈ 32.4 µM) | 32 µg/mL (≈ 64.7 µM) | – | < 0.25 µg/mL | > 32 µg/mL | 4 µg/mL (≈ 8.09 µM) | < 0.25 µg/mL | 4 µg/mL (≈ 8.09 µM) | – | –
Nc1nc(/C(=N/O)C(=O)N[C@@H]2C(=O)N3C(C(=O)O)=C(Sc4ccccc4-c4ccccc4)CS[C@H]23)cs1 [Cmpd 42, (7R)-7-[(Z)-2-(aminothiazol-4-yl)-2-(hydroxyimino)acetamido]-3-(2-biphenylthio)-3-cephem-4-carboxylic acid] | 32 µg/mL (≈ 57.8 µM) | – | 8 µg/mL (≈ 14.4 µM) | 16 µg/mL (≈ 28.9 µM) | – | 0.5 µg/mL (≈ 0.903 µM) | > 32 µg/mL | 2 µg/mL (≈ 3.61 µM) | – | 2 µg/mL (≈ 3.61 µM) | < 0.25 µg/mL | < 0.25 µg/mL
COc1ccc(Cc2ccc(-c3ccccc3SC3=C(C(=O)O)N4C(=O)[C@@H](NC(=O)Cc5ccccc5)[C@H]4SC3)s2)cc1 [Cmpd 43, (7R)-7-[(Phenylacetyl)amino]-3-(2-(2-(4-methoxy-phenylmethyl)thien-5-yl)phenylthio)-3-cephem-4-carboxylic acid] | > 32 µg/mL | < 0.25 µg/mL | 8 µg/mL (≈ 12.7 µM) | 16 µg/mL (≈ 25.4 µM) | – | < 0.25 µg/mL | > 32 µg/mL | 4 µg/mL (≈ 6.36 µM) | < 0.25 µg/mL | 4 µg/mL (≈ 6.36 µM) | – | –
O=C(Cc1ccccc1)N[C@@H]1C(=O)N2C(C(=O)O)=C(Sc3cccc4ccccc34)CS[C@H]12 [Cmpd 54, (7R)-7-[(Phenylacetyl)amino]-3-(1-naphthalenylthio)-3-cephem-4-carboxylic acid] | > 32 µg/mL | < 0.25 µg/mL | 8 µg/mL (≈ 16.8 µM) | 16 µg/mL (≈ 33.6 µM) | < 0.25 µg/mL | < 0.25 µg/mL | > 32 µg/mL | 4 µg/mL (≈ 8.39 µM) | – | – | – | –
